# Legend:
# [1] = biological target: T1, FASN Keto-reductase Domain (Homo sapiens, UniProt P49327); test: Fatty Acid Synthase Keto-Reductase Domain (FASN KR) Inhibition; assay type: biochemical; conditions: mean where tested more than once; read-out: FASN K-R Domain pIC50 (converted)
# T1 construct: 10 μL hFASN enzyme (full length, 300 ng, purified in house) and 360 μM NADPH; made in house
# Procedure, shortened: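 Full-length human FASN (300 ng) in 100 mM KH2PO4 pH 7.5 with 360 μM NADPH and 180 mM ethyl acetoacetate (stock); A340 decrease read over 20 min at room temperature.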
# [2] = test system: A2780 ovarian cells; test: A2780 Ovarian Cell Proliferation Assay in Lipid Reduced Medium, without Palmitate; assay type: cell-based; conditions: Homo sapiens, A2780; lipid reduced medium, without palmitate, 96 h, MTT; read-out: Proliferation A2780 w/o Palmitate pIC50 (converted)
# Procedure, shortened: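 A2780 cells were seeded in 10% FCS medium and switched next day to 10% lipid-reduced serum without palmitate. Compounds at 0.01–30 μM were added with 0.2% DMSO, 0.2% fatty-acid-free BSA and 0.25% ethanol final. After 96 h, MTT absorbance at 544 nm was normalized to plate controls, and IC50/pIC50 came from a 4-parameter logistic fit.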
# [3] = test system: A2780 ovarian cells; test: A2780 Ovarian Cell Proliferation Assay in Lipid Reduced Medium, with Palmitate (control); assay type: cell-based; conditions: Homo sapiens, A2780; lipid reduced medium, 25 μM palmitate, 96 h, MTT; read-out: Proliferation A2780 with Palmitate pIC50 (converted)
# Procedure, shortened: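 A2780 cells were seeded in RPMI1640 with 10% FCS, then switched next day to medium with 10% lipid-reduced serum. Compound was added with final 25 μM palmitate, 0.2% fatty-acid-free BSA and 0.2% DMSO, and incubated 96 h at 37 °C. Read-out was MTT absorbance at 544 nm; pIC50 = −log(IC50) from curve fit.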
# [4] = biological target: T2, hFASN enzyme (full length) (Homo sapiens, UniProt P49327); test: Fatty Acid Synthase (FASN) Inhibition Scintillation Proximity Assay; assay type: biochemical; conditions: for IC50: mean where tested more than once, ~ = standard error of pIC50 larger than 0.5; for inhibition at 10 µM: read-out: FASN % Effect @1E−05M
# T2 construct: 10 μL hFASN enzyme (full length, 300 ng, purified in house); made in house
# T2 sequence (P49327 whole entry): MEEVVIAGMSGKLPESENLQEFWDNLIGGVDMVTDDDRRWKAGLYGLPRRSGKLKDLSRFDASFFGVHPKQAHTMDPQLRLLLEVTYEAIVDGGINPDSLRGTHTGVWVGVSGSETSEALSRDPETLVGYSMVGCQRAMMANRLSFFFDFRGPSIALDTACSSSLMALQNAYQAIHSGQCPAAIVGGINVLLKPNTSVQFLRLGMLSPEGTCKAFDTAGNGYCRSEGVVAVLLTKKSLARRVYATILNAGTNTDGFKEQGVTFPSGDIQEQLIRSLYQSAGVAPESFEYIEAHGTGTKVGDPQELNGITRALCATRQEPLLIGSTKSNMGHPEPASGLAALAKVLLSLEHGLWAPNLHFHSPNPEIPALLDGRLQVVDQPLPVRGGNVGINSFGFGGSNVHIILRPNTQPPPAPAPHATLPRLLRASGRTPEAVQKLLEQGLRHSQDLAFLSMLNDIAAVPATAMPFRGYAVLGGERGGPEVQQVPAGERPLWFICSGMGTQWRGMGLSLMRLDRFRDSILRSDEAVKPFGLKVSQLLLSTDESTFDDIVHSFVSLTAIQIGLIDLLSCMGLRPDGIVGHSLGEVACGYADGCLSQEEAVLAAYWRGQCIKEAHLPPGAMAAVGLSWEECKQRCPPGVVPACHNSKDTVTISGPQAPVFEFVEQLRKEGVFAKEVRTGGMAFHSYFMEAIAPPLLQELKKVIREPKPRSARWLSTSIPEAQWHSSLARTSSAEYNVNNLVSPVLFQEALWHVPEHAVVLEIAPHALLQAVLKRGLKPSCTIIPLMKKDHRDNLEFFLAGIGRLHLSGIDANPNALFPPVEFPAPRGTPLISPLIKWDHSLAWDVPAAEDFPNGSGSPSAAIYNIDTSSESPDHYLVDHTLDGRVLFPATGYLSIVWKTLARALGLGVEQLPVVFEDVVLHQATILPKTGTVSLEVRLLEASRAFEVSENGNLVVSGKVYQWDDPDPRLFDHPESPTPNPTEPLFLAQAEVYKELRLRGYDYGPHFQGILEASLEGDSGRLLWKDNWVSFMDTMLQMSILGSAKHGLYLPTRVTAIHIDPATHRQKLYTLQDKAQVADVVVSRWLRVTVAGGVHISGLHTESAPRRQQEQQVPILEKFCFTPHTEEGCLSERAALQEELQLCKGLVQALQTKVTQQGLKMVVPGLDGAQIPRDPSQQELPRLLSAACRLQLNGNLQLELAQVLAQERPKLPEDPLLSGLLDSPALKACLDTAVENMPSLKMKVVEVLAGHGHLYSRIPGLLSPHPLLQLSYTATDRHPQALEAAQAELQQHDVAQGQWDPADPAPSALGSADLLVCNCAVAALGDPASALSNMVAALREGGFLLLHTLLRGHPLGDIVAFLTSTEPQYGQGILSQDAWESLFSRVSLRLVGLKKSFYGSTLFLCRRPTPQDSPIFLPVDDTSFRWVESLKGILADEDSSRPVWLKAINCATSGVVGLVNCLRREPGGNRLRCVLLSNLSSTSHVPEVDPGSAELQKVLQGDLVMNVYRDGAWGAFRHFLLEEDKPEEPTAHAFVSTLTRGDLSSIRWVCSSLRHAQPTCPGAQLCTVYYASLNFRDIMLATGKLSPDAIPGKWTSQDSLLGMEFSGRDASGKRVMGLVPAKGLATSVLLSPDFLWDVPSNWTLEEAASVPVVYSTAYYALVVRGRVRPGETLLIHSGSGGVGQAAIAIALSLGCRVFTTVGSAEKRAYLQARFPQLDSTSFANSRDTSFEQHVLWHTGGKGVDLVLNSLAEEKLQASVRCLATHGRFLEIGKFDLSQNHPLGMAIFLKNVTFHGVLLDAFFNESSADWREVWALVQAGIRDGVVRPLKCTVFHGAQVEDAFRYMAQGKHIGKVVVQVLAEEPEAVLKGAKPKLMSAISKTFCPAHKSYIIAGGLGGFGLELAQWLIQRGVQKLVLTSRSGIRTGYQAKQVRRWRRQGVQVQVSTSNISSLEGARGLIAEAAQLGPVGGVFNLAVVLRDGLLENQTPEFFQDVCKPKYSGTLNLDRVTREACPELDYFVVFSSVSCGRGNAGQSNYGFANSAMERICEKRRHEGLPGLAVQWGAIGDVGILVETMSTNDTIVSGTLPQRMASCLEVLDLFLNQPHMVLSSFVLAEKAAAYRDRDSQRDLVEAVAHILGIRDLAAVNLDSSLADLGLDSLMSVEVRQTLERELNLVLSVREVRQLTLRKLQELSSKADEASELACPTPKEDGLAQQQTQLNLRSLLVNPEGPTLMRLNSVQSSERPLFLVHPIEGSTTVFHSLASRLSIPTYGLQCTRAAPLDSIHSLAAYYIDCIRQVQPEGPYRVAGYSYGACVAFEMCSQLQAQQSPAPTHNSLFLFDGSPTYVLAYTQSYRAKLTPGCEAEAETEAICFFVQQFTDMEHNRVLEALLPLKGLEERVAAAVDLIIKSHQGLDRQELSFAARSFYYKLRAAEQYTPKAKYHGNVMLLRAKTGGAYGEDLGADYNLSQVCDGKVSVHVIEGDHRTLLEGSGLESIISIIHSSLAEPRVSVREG
# Procedure, shortened: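 Purified full-length human FASN (300 ng) incubated 60 min at room temperature with NADPH, [3H]-acetyl-CoA and malonyl-CoA in 100 mM KH2PO4 pH 7.5, 1 mM DTT; compound at 30 μM to 0.01 μM. [3H]-palmitate captured by SPA imaging beads; IC50 from 4-parameter fit, reported as pIC50.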
# T1 sequence (P49327 whole entry, the tested form may be a part): as the sequence (P49327 whole entry) above
IC50 [1] [µM],IC50 [2] [µM],IC50 [3] [µM],IC50 [4] [µM],inhibition at 10 µM [4] [%],Compound
0.0603,0.0209,> 10,0.0219,110,"Cc1ccc(C(=O)N2CC(c3ccc(-c4ccncc4N)cc3)C2)cc1NC(=O)c1ccc(N2CCOCC2)nc1 [Compound 265, N-(5-(3-(4-(3-aminopyridin-4-yl)phenyl)azetidine-1-carbonyl)-2-methylphenyl)-6-morpholinonicotinamide]"
0.309,0.11,> 10,0.0851,108,"Cc1ccc(C(=O)N2CCC(c3ccc(-c4cnn(C)c4)cc3)CC2)cc1NC(=O)C1CN(CC(C)C)C1 [Compound 210, 1-isobutyl-N-(2-methyl-5-(4-(4-(1-methyl-1H-pyrazol-4-yl)phenyl)piperidine-1-carbonyl)phenyl)azetidine-3-carboxamide]"
0.102,0.0347,> 10,0.0251,112,"Cc1ccc(C(=O)N2CC(c3ccc(-c4cccnc4N)cc3)C2)cc1NC(=O)c1ccc(N2CCOCC2)nc1 [Compound 260, N-(5-(3-(4-(2-aminopyridin-3-yl)phenyl)azetidine-1-carbonyl)-2-methylphenyl)-6-morpholinonicotinamide]"
0.257,0.316,7.24,0.0692,107,"CC(C)Nc1ccc(C(=O)Nc2cc(C(=O)N3CCC(c4ccc(-c5cnn(C)c5)cc4)CC3)ccc2O)cn1 [Compound 269, N-(2-hydroxy-5-(4-(4-(1-methyl-1H-pyrazol-4-yl)phenyl)piperidine-1-carbonyl)phenyl)-6-(isopropylamino)nicotinamide]"
0.324,0.12,> 10,0.12,108,"CCCCN1CCC(C(=O)Nc2cc(C(=O)N3CCC(c4ccc(-c5cnn(C)c5)cc4)CC3)ccc2C)C1 (stereo not shown) [Compound 212, 1-butyl-N-(2-methyl-5-(4-(4-(1-methyl-1H-pyrazol-4-yl)phenyl)piperidine-1-carbonyl)phenyl)pyrrolidine-3-carboxamide]"
0.245,0.112,8.32,0.0537,110,"Cc1ccc(C(=O)N2CCC(c3ccc(-c4cnn(C)c4C)cc3)CC2)cc1NC(=O)c1ccc(NC(C)C)nc1 [Compound 246, N-(5-(4-(4-(1,5-dimethyl-1H-pyrazol-4-yl)phenyl)piperidine-1-carbonyl)-2-methylphenyl)-6-(isopropylamino)nicotinamide]"
1.78,1.62,4.47,0.513,96,"Cc1ccc(C(=O)N2CC[C@H](c3ccc(-c4ccnn4C)cc3)[C@H](C)C2)cc1NC(=O)c1ccc(Cl)nc1 (racemic) [Compound #111, (±)-6-chloro-N-(2-methyl-5-((3S,4S)-3-methyl-4-(4-(1-methyl-1H-pyrazol-5-yl)phenyl)piperidine-1-carbonyl)phenyl)nicotinamide]"
0.132,0.174,6.31,0.0191,115,"Cc1ccc(C(=O)N2CC[C@H](c3ccc(-c4ccnn4C)cc3)[C@@H](C)C2)cc1NC(=O)c1ccc(Cl)nc1 (racemic) [Compound #110, (±)-6-Chloro-N-(2-methyl-5-((3R,4S)-3-methyl-4-(4-(1-methyl-1H-pyrazol-5-yl)phenyl)piperidine-1-carbonyl)phenyl)nicotinamide]"
0.0661,0.0302,2.69,0.0115,104,"Cc1ccc(C(=O)N2CCC(c3ccc(-c4cnn(C)c4)cc3)CC2)cc1NC(=O)c1ccc(N2CCN(C)CC2)nc1 [Compound #112, N-(2-Methyl-5-(4-(4-(1-methyl-1H-pyrazol-4-yl)phenyl)piperidine-1-carbonyl)phenyl)-6-(4-methylpiperazin-1-yl)nicotinamide]"

# The remaining lines, values behind:
Compound,IC50 [1] [µM],IC50 [2] [µM],IC50 [3] [µM],IC50 [4] [µM],inhibition at 10 µM [4] [%]
"Cc1ccc(C(=O)N2CCC(c3ccc4[nH]c(=O)sc4c3)CC2)cc1NC(=O)c1ccc(NC(C)C)nc1 [Compound 49, 6-(isopropylamino)-N-(2-methyl-5-(4-(2-oxo-2,3-dihydrobenzo[d]thiazol-6-yl)piperidine-1-carbonyl)phenyl)nicotinamide]",0.229,0.813,> 10,0.12,97
"Cc1ccc(C(=O)N2CC(c3ccc(-c4ccnn4C)cc3)C2)cc1NC(=O)c1ccc(N2CCOCC2)nc1 [Compound 58, N-(2-methyl-5-(3-(4-(1-methyl-1H-pyrazol-5-yl)phenyl)azetidine-1-carbonyl)phenyl)-6-morpholinonicotinamide]",0.0282,0.0182,3.72,0.0112,111
"Cc1ccc(C(=O)N2CC(c3ccc(-c4ccnn4C)cc3)C2)cc1NC(=O)c1ccc(NC(C)C)nc1 [Compound 25, 6-(isopropylamino)-N-(2-methyl-5-(3-(4-(1-methyl-1H-pyrazol-5-yl)phenyl)azetidine-1-carbonyl)phenyl)nicotinamide]",0.0457,0.0347,~2.09,0.0282,109
"Cc1ccc(C(=O)N2CC(c3ccc(-c4cccnc4)cc3)C2)cc1NC(=O)c1ccc(NC(C)C)nc1 [Compound 10, 6-(isopropylamino)-N-(2-methyl-5-(3-(4-(pyridin-3-yl)phenyl)azetidine-1-carbonyl)phenyl)nicotinamide]",0.0447,~0.0575,> 15.1,0.0324,103
"CSc1ccc(C(=O)Nc2cc(C(=O)N3CCC(c4ccc(-c5cnn(C)c5)cc4)CC3)ccc2C)cc1 [Compound 126, N-(2-methyl-5-(4-(4-(1-methyl-1H-pyrazol-4-yl)phenyl)piperidine-1-carbonyl)phenyl)-4-(methylthio)benzamide]",0.0324,0.0263,> 10,0.0302,110
"Cc1ccc(C(=O)N2CCC(c3ccc(-c4cnn(C)c4)cc3)CC2)cc1NC(=O)C1CCN(CC(C)(C)C)CC1 [Compound 178, N-(2-methyl-5-(4-(4-(1-methyl-1H-pyrazol-4-yl)phenyl)piperidine-1-carbonyl)phenyl)-1-neopentylpiperidine-4-carboxamide]",0.0589,0.0269,> 10,0.0457,106
"COc1cc(Cl)cc(C(=O)Nc2cc(C(=O)N3CCC(c4ccc(-c5cnn(C)c5)cc4)CC3)ccc2C)c1 [Compound 128, 3-chloro-5-methoxy-N-(2-methyl-5-(4-(4-(1-methyl-1H-pyrazol-4-yl)phenyl)piperidine-1-carbonyl)phenyl)benzamide]",0.288,~0.417,6.17,0.257,84
"Cc1ccc(C(=O)N2CCC(c3ccc(-c4cnn(C)c4)cc3)CC2)cc1NC(=O)c1cnc(Cl)nc1 [Compound 136, 2-chloro-N-(2-methyl-5-(4-(4-(1-methyl-1H-pyrazol-4-yl)phenyl)piperidine-1-carbonyl)phenyl)pyrimidine-5-carboxamide]",0.0692,1.23,~5.13,0.0309,105
"Cc1ccc(C(=O)N2CCC(c3ccc(-c4cnn(C)c4)cc3)CC2)cc1NC(=O)c1ccc(C(C)C)cc1 [Compound 148, 4-isopropyl-N-(2-methyl-5-(4-(4-(1-methyl-1H-pyrazol-4-yl)phenyl)piperidine-1-carbonyl)phenyl)benzamide]",0.0537,0.0891,8.32,0.0479,102
"Cc1ccc(C(=O)N2CC(c3ccc(-c4cnn(C)c4)cc3)C2)cc1NC(=O)C1CCCCC1 [Compound 125, N-(2-methyl-5-(3-(4-(1-methyl-1H-pyrazol-4-yl)phenyl)azetidine-1-carbonyl)phenyl)cyclohexanecarboxamide]",0.0794,0.132,4.79,0.0447,104
"Cc1ccc(C(=O)N2CCC(c3ccc(-c4cnn(C)c4)cc3)CC2)cc1NC(=O)C1CN(C(C)C)C1 [Compound 206, 1-isopropyl-N-(2-methyl-5-(4-(4-(1-methyl-1H-pyrazol-4-yl)phenyl)piperidine-1-carbonyl)phenyl)azetidine-3-carboxamide]",0.457,0.151,> 10,0.158,99
